Where no end group is shown, it is not given here.
Columns and labels:
human red blood cells = experiment: Hemolytic assay; assay type: cell-based; details: human, 1 h, 400 μM
Procedure, shortened: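 Washed human erythrocytes at 2% in isotonic saline incubated 1 h at 37 °C with serially diluted peptides. After centrifugation, released hemoglobin read at 545 nm relative to 1% Triton X-100; HC50 is the peptide concentration giving 50% lysis.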

P. aeruginosa E411-17 = experiment: Membrane depolarization (DiBAC4(3)); assay type: cell-based, Pseudomonas aeruginosa; details: Example 2, PBS with glucose
Experimental: Bacterial membrane depolarization was conducted (Marks, et al. (2013) PLoS One 8(5):e63158). Briefly, an overnight culture of MRSA USA300 or P. aeruginosa E411-17 was inoculated into TSB and grown to exponential phase. Bacteria were washed with 1×PBS, re-suspended in twice the volume of 1×PBS containing 25 mM glucose, and incubated at 37° C. for 15 minutes. Then, 500 nM (final concentration) of the DiBAC4 (3) bis-(1, 3-dibutylbarbituric acid) trimethine oxonol (ANASPEC, CA) was added and vortexed gently. Aliquots of 90 μL of the energized bacteria solution were loaded to the 96 well plates (Corning COSTAR, AZ) and placed in a FLUOstar® Omega microplate reader (BMG LABTECH, NC). Fluorescence was read for 20 minutes at excitation and emission wavelengths of 485 nm and 520 nm, respectively. Then, 10 μL of peptide solutions was added and fluorescence readings were recorded for 40 minutes. Triton® X-100 (0.1%) was used as a positive control.

MRSA USA300 = experiment: Inhibition of bacterial attachment; assay type: cell-based, Staphylococcus aureus; details: Example 1, 4× and 8×MIC
Experimental: Inhibition of Bacterial Attachment. Bacterial attachment is the initial step for biofilm formation. For this experiment, an overnight culture of MRSA USA300 was grown overnight in TSB media to an optical density (OD600) of ˜1.0. […] The plates were then incubated at 37° C. for 1 hour. Next, the medium was aspirated and washed with 1×PBS, and 200 μL of TSB containing XTT 10% [2,3-bis(2-methyloxy-4-nitro-5-sulfophenyl)-2H-tertazolium-5-carboxanilide](ATCC, VA) solution was added. After incubation at 37° C. for 2 hours, absorbance was read at 450 nm using a ChroMate™ microtiter plate reader. TSB containing 10% XTT served as a blank, while bacterial culture treated with water served as a positive control. Percentages of viable cells in biofilms were plotted by assuming 100% growth in water treated control.
Bacterial attachment was conducted (Mishra, et al. (2016) ACS Med. Chem. Lett., 77(1):117-121; Duplantier, et al. (2013) Front. Immunol., 4: 143). In brief, an overnight culture of MRSA USA300 or P. aeruginosa E411-17 was grown overnight in TSB media to an optical density (OD600) of ˜1.0. […] The plates were then incubated at 37° C. for 1 hour. […] After incubation at 37° C. for 2 hours, absorbance was read at 450 nm using a ChroMate® microtiter plate reader. […]

trypsin = details: peptide:protease 40:1, 37° C., 1 hour
Experimental: A solution of peptide/protease (40:1 molar ratio) was made in phosphate-buffered saline (PBS; pH 7.1, Gibco, NY) and incubated at 37° C. for 1 hour. As controls, peptides without proteases were also incubated in the same manner. Then, aliquots of 10 μL were transferred to a 96-well polystyrene microplate and mixed with the exponential-phase MRSA USA300 culture as performed in the antibacterial activity assays above.

E. coli E423-17 = experiment: Membrane depolarization (DiBAC4(3)); assay type: cell-based, Escherichia coli; details: Example 1

CCCCCCCCCC(=O)N[C@@H](Cc1c[nH]c2ccccc12)C(=O)N[C@H](CC(N)=O)C(=O)N[C@@H](CC(=O)O)C(=O)N[C@@H]1C(=O)NCC(=O)N[C@@H](CCCN)C(=O)N[C@@H](CC(=O)O)C(=O)N[C@H](C)C(=O)N[C@@H](CC(=O)O)C(=O)NCC(=O)N[C@H](CO)C(=O)N[C@@H]([C@H](C)CC(=O)O)C(=O)N[C@@H](CC(=O)c2ccccc2N)C(=O)O[C@@H]1C [Daptomycin]
hemolysis (human red blood cells): did not lyse human red blood cells even at 400 μM

CC[C@H](C)[C@H](NC(=O)[C@H](CCCCN)NC(=O)[C@H](CCC(=O)O)NC(=O)[C@H](CCCCN)NC(=O)[C@H](CO)NC(=O)[C@H](CCCCN)NC(=O)[C@H](CCCNC(=N)N)NC(=O)[C@H](Cc1ccccc1)NC(=O)[C@H](Cc1ccccc1)NC(=O)[C@H](CC(=O)O)NC(=O)CNC(=O)[C@H](CC(C)C)NC(=O)[C@@H](N)CC(C)C)C(=O)NCC(=O)N[C@@H](CCCCN)C(=O)N[C@@H](CCC(=O)O)C(=O)N[C@@H](Cc1ccccc1)C(=O)N[C@@H](CCCCN)C(=O)N[C@@H](CCCNC(=N)N)C(=O)N[C@H](C(=O)N[C@H](C(=O)N[C@@H](CCC(N)=O)C(=O)N[C@@H](CCCNC(=N)N)C(=O)N[C@H](C(=O)N[C@@H](CCCCN)C(=O)N[C@@H](CC(=O)O)C(=O)N[C@@H](Cc1ccccc1)C(=O)N[C@@H](CC(C)C)C(=O)N[C@@H](CCCNC(=N)N)C(=O)N[C@@H](CC(N)=O)C(=O)N[C@@H](CC(C)C)C(=O)N[C@H](C(=O)N1CCC[C@H]1C(=O)N[C@@H](CCCNC(=N)N)C(=O)N[C@H](C(=O)N[C@@H](CCC(=O)O)C(=O)N[C@@H](CO)C(=O)O)[C@@H](C)O)C(C)C)[C@@H](C)CC)C(C)C)[C@@H](C)CC [LL-37]
membrane depolarization (P. aeruginosa E411-17): most powerful in membrane depolarization

RRWWRWWR-NH2 [W543]
anti-attachment ability (MRSA USA300): did not show anti-attachment ability
activity after protease incubation (trypsin): started to lose activity
membrane depolarization (E. coli E423-17): some depolarization

From patent US20250101062A1, “ANTIMICROBIAL PEPTIDES” (Board of Regents of the University of Nebraska, priority 2023, published 2025)
